Data reported in patent US4731109A, “Herbicidal 2-haloacetanilides” (Monsanto Company, priority 1982, dated 1988).
Like-named read-outs stand apart in the source and are kept apart here.

Tests used:
[1] = tested on: Lambsquarters; assay: Field pre-emergence selectivity test; format: in vivo; conditions: Chenopodium album, 1008 h, 6 weeks, read-out: Percent Inhibition; for inhibition at 560 g/ha: 0.56 Kg/Ha; for inhibition at 1120 g/ha: 1.12 Kg/Ha; for inhibition at 2240 g/ha: 2.24 Kg/Ha; for inhibition at 4480 g/ha: 4.48 Kg/Ha
Source text: (§1) The seeds were planted in a fine seedbed of silt loam of intermediate moisture. The seeds were planted at a depth of two inches (5.08 cm). First rainfall (0.2"; 0.51 cm) occurred the day following treatment, the second rain (0.25"; […]) two days after treatment; cumulative rainfall 22 days after treatment was 1.8" (4.57 cm). Observations were made 6 weeks after treatment.

[2] = tested on: Sweet Corn; assay: Field pre-emergence selectivity test; format: in vivo; conditions: Zea mays, 1008 h, 6 weeks, read-out: Percent Inhibition; for inhibition at 560 g/ha: 0.56 Kg/Ha; for inhibition at 1120 g/ha: 1.12 Kg/Ha; for inhibition at 2240 g/ha: 2.24 Kg/Ha; for inhibition at 4480 g/ha: 4.48 Kg/Ha
Source text: as §1

[3] = Toxicology studies, LD50; conditions: in vivo
Source text: Toxicology studies on the compound of Example 1 have indicated the compound to be quite safe. […] No special handling procedures beyond normal precautions are deemed necessary.

[4] = tested on: Pennsylvania smartweed; assay: Field tests, selectivity; format: in vivo; conditions: in soybeans, P.P.I., 8 WAT
Source text: (§2) In the discussion and tables of data below, reference is made to herbicide application rates symbolized as "GR15 " and "GR85 "; these rates are given in kilograms per hectare (kg/ha) which are convertible into pounds per acre (lbs/A) by dividing the kg/ha rate by 1.12.
(§3) A further guide to the effectiveness of a chemical as a selective herbicide is the "selectivity factor" ("SF") for a herbicide in given crops and weeds. The selectivity factor is a measure of the relative degree of crop safety and weed injury and is expressed in terms of the GR15 /GR85 ratio, i.e., the GR15 rate for the crop divided by the GR85 rate for the weed, both rates in kg/ha (lb/A). In the tables below, selectivity factors are shown in parenthesis following the GR85 rate for each weed; the symbol "NS" indicates "non-selective". Marginal or undetermined selectivity is indicated by a dash (--).
(§4) It will be understood by those skilled in the art that not all of the named weeds are selectively controlled in all of the named crops under all conditions of climate, soil, moisture and/or herbicide application modes. Selectivity data for control of the foregoing weeds in the crops soybeans, corn, cotton and peanuts from a plurality of field tests in various locations under various conditions of soil, moisture, etc., is shown collectively in Tables VIII-XI, respectively.

[5] = tested on: purple nutsedge; assay: Field tests, selectivity; format: in vivo; conditions: in cotton
Source text: as §2, §3, §4

[6] = tested on: cotton; assay: Field tests, selectivity; format: in vivo
Source text: as §2, §3, §4

[7] = tested on: soybeans; assay: Field tests, selectivity; format: in vivo
Source text: as §2, §3, §4

[8] = tested on: goosegrass; assay: Field tests, selectivity; format: in vivo; conditions: in cotton, P.P.I., 7 WAT
Source text: as §2, §3, §4

[9] = tested on: crabgrass (smooth and hairy); assay: Field tests, selectivity; format: in vivo; conditions: in cotton, 7 WAT
Source text: as §2, §3, §4

[10] = tested on: Morningglory; assay: Field tests, selectivity; format: in vivo; conditions: in corn
Source text: as §2, §3, §4

[11] = tested on: Cocklebur; assay: Field tests, selectivity; format: in vivo; conditions: in corn
Source text: as §2, §3, §4

[12] = tested on: purslane; assay: Field tests, selectivity; format: in vivo; conditions: in cotton, S.A., 9 WAT
Source text: as §2, §3, §4

[13] = tested on: corn; assay: Field tests, selectivity; format: in vivo
Source text: as §2, §3, §4

[14] = tested on: prickly sida; assay: Field tests, selectivity; format: in vivo; conditions: in cotton
Source text: as §2, §3, §4

[15] = tested on: Lambsquarters; assay: Field tests, selectivity; format: in vivo; conditions: in soybeans, 6 WAT
Source text: as §2, §3, §4

[16] = tested on: Yellow foxtail; assay: Field tests, selectivity; format: in vivo; conditions: in soybeans, 6 WAT
Source text: as §2, §3, §4

[17] = tested on: Giant foxtail; assay: Field tests, selectivity; format: in vivo
Source text: as §2, §3, §4

CCOCN(C(=O)CCl)c1c(C)cccc1C(F)(F)F [Example 1, N-(ethoxymethyl)-2'-trifluoromethyl-6'-methyl-2-chloroacetanilide]
inhibition at 560 g/ha ([1]; S.A.): 0%
inhibition at 1120 g/ha ([1]; S.A.): 13%
inhibition at 2240 g/ha ([1]; S.A.): 40%
inhibition at 4480 g/ha ([1]; S.A.): 67%
inhibition at 560 g/ha ([2]; P.P.I.): 0%
inhibition at 1120 g/ha ([2]; P.P.I.): 3%
inhibition at 2240 g/ha ([2]; P.P.I.): 27%
inhibition at 4480 g/ha ([2]; P.P.I.): 40%
inhibition at 560 g/ha ([2]; S.A.): 0%
inhibition at 1120 g/ha ([2]; S.A.): 0%
inhibition at 2240 g/ha ([2]; S.A.): 7%
toxicity [3]: slightly toxic
LD50 ([3]; po, read-out: OLD50): 2300 mg/kg
LD50 ([3]; read-out: MLD50): > 5010 mg/kg
GR85 [4]: 2.5 kg/ha
S.F. (GR15/GR85) [4]: 2
GR85 ([5]; P.P.I., 6 WAT): 4.2 kg/ha
GR85 ([5]; S.A., 6 WAT): 1.7 kg/ha
S.F. (GR15/GR85) ([5]; S.A., 6 WAT): 2
GR85 ([5]; S.A., 9 WAT): 2.2 kg/ha
S.F. (GR15/GR85) ([5]; S.A., 9 WAT): 1.5
GR15 ([6]; Cotton/Crabgrass, P.P.I., 7 WAT): 0.84 kg/ha
GR15 ([6]; Cotton/Crabgrass, S.A., 7 WAT): 1.4 kg/ha
GR15 ([6]; Cotton/Goosegrass, P.P.I., 7 WAT): 0.84 kg/ha
GR15 ([6]; Cotton/Prickly sida, P.P.I., 6 WAT): 3.4 kg/ha
GR15 ([6]; Cotton/Prickly sida, S.A., 6 WAT): 3.6 kg/ha
GR15 ([6]; Cotton/Prickly sida, S.A., 9 WAT): 3.4 kg/ha
GR15 ([6]; Cotton/Purple nutsedge, P.P.I., 6 WAT): 3.4 kg/ha
GR15 ([6]; Cotton/Purple nutsedge, S.A., 6 WAT): 3.6 kg/ha
GR15 ([6]; Cotton/Purple nutsedge, S.A., 9 WAT): 3.4 kg/ha
GR15 ([6]; Cotton/Purslane, S.A., 9 WAT): 3.4 kg/ha
GR15 ([7]; Soybeans/Giant foxtail, P.P.I., 3 WAT): > 4.5 kg/ha
GR15 ([7]; Soybeans/Giant foxtail, P.P.I., 5 WAT): > 4.5 kg/ha
GR15 ([7]; Soybeans/Giant foxtail, S.A., 3 WAT): > 4.5 kg/ha
GR15 ([7]; Soybeans/Lambsquarters, P.P.I., 6 WAT): 1.4 kg/ha
GR15 ([7]; Soybeans/Lambsquarters, S.A., 6 WAT): 2.5 kg/ha
GR15 ([7]; Soybeans/Pennsylvania Smartweed, P.P.I., 8 WAT): 4.5 kg/ha
GR15 ([7]; Soybeans/Yellow foxtail, P.P.I., 6 WAT): 1.4 kg/ha
GR15 ([7]; Soybeans/Yellow foxtail, S.A., 6 WAT): 2.5 kg/ha
GR85 [8]: < 1.1 kg/ha
control [8]: marginal or indeterminate
GR85 ([9]; P.P.I.): 1.1 kg/ha
GR85 ([9]; S.A.): < 1.1 kg/ha
S.F. (GR15/GR85) ([9]; S.A.): > 1
GR85 ([10]; P.P.I., 3 WAT): > 4.5 kg/ha
GR85 ([10]; P.P.I., 6 WAT): > 4.5 kg/ha
GR85 ([10]; S.A., 3 WAT): > 4.5 kg/ha
GR85 ([10]; S.A., 6 WAT): > 4.5 kg/ha
suppression ([10]; Table IX): suppression of these weeds was exhibited
GR85 ([11]; P.P.I., 3 WAT): > 4.5 kg/ha
GR85 ([11]; P.P.I., 6 WAT): > 4.5 kg/ha
GR85 ([11]; S.A., 3 WAT): > 4.5 kg/ha
GR85 ([11]; S.A., 6 WAT): > 4.5 kg/ha
suppression ([11]; Table IX): suppression of these weeds was exhibited
GR85 [12]: 2.0 kg/ha
S.F. (GR15/GR85) [12]: 1.5
GR15 ([13]; Corn/Cocklebur, P.P.I., 3 WAT): 4.8 kg/ha
GR15 ([13]; Corn/Cocklebur, P.P.I., 6 WAT): 4.8 kg/ha
GR15 ([13]; Corn/Cocklebur, S.A., 3 WAT): > 4.5 kg/ha
GR15 ([13]; Corn/Cocklebur, S.A., 6 WAT): > 4.5 kg/ha
GR15 ([13]; Corn/Giant foxtail, P.P.I., 6 WAT): 4.8 kg/ha
GR15 ([13]; Corn/Giant foxtail, P.P.I., 6.5 WAT): > 6.7 kg/ha
GR15 ([13]; Corn/Giant foxtail, S.A., 6 WAT): 4.5 kg/ha
GR15 ([13]; Corn/Giant foxtail, S.A., 6.5 WAT): > 7.8 kg/ha
GR15 ([13]; Corn/Morningglory, P.P.I., 3 WAT): 4.8 kg/ha
GR15 ([13]; Corn/Morningglory, P.P.I., 6 WAT): 4.8 kg/ha
GR15 ([13]; Corn/Morningglory, S.A., 3 WAT): > 4.5 kg/ha
GR15 ([13]; Corn/Morningglory, S.A., 6 WAT): > 4.5 kg/ha
GR85 ([14]; P.P.I., 6 WAT): 4.8 kg/ha
GR85 ([14]; S.A., 6 WAT): 3.1 kg/ha
S.F. (GR15/GR85) ([14]; S.A., 6 WAT): 1
GR85 ([14]; S.A., 9 WAT): 4.8 kg/ha
GR85 ([15]; P.P.I.): 2.8 kg/ha
GR85 ([15]; S.A.): 2.5 kg/ha
S.F. (GR15/GR85) ([15]; S.A.): 1
GR85 ([16]; P.P.I.): < 1.12 kg/ha
S.F. (GR15/GR85) ([16]; P.P.I.): > 1
GR85 ([16]; S.A.): 1.1 kg/ha
S.F. (GR15/GR85) ([16]; S.A.): 2
GR85 ([17]; in corn, P.P.I., 6 WAT): 2.0 kg/ha
S.F. (GR15/GR85) ([17]; in corn, P.P.I., 6 WAT): 2.5
GR85 ([17]; in corn, P.P.I., 6.5 WAT): 4.5 kg/ha
S.F. (GR15/GR85) ([17]; in corn, P.P.I., 6.5 WAT): 1.5
GR85 ([17]; in corn, S.A., 6 WAT): < 1.1 kg/ha
S.F. (GR15/GR85) ([17]; in corn, S.A., 6 WAT): 4
GR85 ([17]; in corn, S.A., 6.5 WAT): 8.4 kg/ha
GR85 ([17]; in soybeans, P.P.I., 3 WAT): < 1.1 kg/ha
S.F. (GR15/GR85) ([17]; in soybeans, P.P.I., 3 WAT): > 4
GR85 ([17]; in soybeans, P.P.I., 5 WAT): < 1.1 kg/ha
S.F. (GR15/GR85) ([17]; in soybeans, P.P.I., 5 WAT): > 4
GR85 ([17]; in soybeans, S.A., 3 WAT): < 1.1 kg/ha
S.F. (GR15/GR85) ([17]; in soybeans, S.A., 3 WAT): > 4

CC(C)OCN(C(=O)CCl)c1ccccc1C(F)(F)F [Example 2, N--(isopropoxymethyl)-2'-trifluoromethyl-2-chloroacetanilide]
inhibition at 2240 g/ha ([1]; P.P.I.): 95%
inhibition at 4480 g/ha ([1]; P.P.I.): 100%
inhibition at 560 g/ha ([1]; S.A.): 0%
inhibition at 1120 g/ha ([1]; S.A.): 7%
inhibition at 2240 g/ha ([1]; S.A.): 20%
inhibition at 4480 g/ha ([1]; S.A.): 62%
inhibition at 560 g/ha ([2]; P.P.I.): 0%
inhibition at 1120 g/ha ([2]; P.P.I.): 0%
inhibition at 2240 g/ha ([2]; P.P.I.): 13%
inhibition at 4480 g/ha ([2]; P.P.I.): 35%
inhibition at 560 g/ha ([2]; S.A.): 0%
inhibition at 1120 g/ha ([2]; S.A.): 0%
inhibition at 2240 g/ha ([2]; S.A.): 0%
inhibition at 4480 g/ha ([2]; S.A.): 23%
